This is an account of results in patent publication US9050267B2 (Novartis AG, priority 2011, dated 2015).

Data set [1] can be described thus: Aerodynamic particle size distribution, NEXT GENERATION IMPACTOR, passive blister dry powder inhaler. The data set is classed as physicochemical. As to conditions: Lot A2; for % deviation in FPFd2Q<500: going from 35 L/min to 47 L/min. The protocol:
The aerodynamic particle size distribution (aPSD) of the resulting aerosol dose was assessed using a NEXT GENERATION IMPACTOR™ at flow rates of 35 LPM and 47 LPM, corresponding to inhaler pressure drops of 4 kPa and 6 kPa, respectively. Note for present purposes flow rate and pressure drop are related via the inhaler flow resistance, and are used interchangeably. The mass distribution of each active ingredient on the cascade impactor stages was determined using an HPLC assay.
Total lung deposition as a function of variations in flow rate (O) is dependent not only on the aerodynamic particle size distribution of the aerosol, but also on the variations in inertial impaction which occur with changes in flow rate. In other words, for a given aPSD, the lung dose is expected to decrease as the flow rate increases. In order to achieve flow rate independence in-vivo, it is important to achieve a balance of these two opposing factors. A simple way to account for the dependence of lung dose on both variables, i.e. aerodynamic particle size cutoff diameter, d, and flow rate, Q, is to express the aPSD in terms of a fine particle fraction cut-off which incorporates both variables. Assuming oropharyngeal losses are determined largely by inertial impaction, the cut-off for lung dose may be expressed in terms of the impaction parameter, d^2Q. The selected cut-off d^2Q of 500 μm^2-L/min was chosen to represent a range of inhalers, based on the fact that the best correlate of lung deposition is found for the fraction of particles with an aerodynamic size of less than 3 μm, and a medium resistance inhaler is typically tested at a flow rate of about 60 L/min.

For data set [2] the following is noted: TURBUHALER, cited from earlier work.
For data set [3], the target named is β2-adrenoceptor (Homo sapiens, UniProt P07550). The conditions noted are these: cited from earlier work.
For data set [4] the following is noted: cited from earlier work.
The mark [5] stands for this setting: pressure drop 4 kPa, flow rate 35 L/min.
Where [6] appears, read: pressure drop 6 kPa, flow rate 47 L/min.

Where a name gives a salt, the structure may show the parent alone. Read-outs that look alike come from different tables or passages of the source. Peptide text beside a SMILES is read from it.

β2-adrenoceptor, sequence (P07550 whole entry, species assumed): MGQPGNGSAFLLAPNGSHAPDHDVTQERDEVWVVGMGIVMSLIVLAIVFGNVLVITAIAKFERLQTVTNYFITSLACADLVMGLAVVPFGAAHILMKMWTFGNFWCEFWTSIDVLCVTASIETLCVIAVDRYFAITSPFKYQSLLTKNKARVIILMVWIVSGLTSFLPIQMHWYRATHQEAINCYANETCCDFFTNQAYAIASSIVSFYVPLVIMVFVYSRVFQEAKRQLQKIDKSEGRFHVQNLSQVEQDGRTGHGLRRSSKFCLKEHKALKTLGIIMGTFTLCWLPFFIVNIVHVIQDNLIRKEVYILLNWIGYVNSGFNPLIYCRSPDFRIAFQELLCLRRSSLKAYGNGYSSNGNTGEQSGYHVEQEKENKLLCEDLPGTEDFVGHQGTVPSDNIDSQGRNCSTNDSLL

Take `C[N+]1(C)CCC(OC(=O)C(O)(c2ccccc2)C2CCCC2)C1.[Br-]` (centres unmarked) [Glycopyrrolate, 3-[(cyclopentyl-hydroxyphenyl-acetyl)oxy]-1,1-dimethylpyrrolidinium bromide]: the “% deviation in FPFd2Q<500” value in data set [1] is listed as 8.1%.

Take `CCc1cc2c(cc1CC)CC(NC[C@H](O)c1ccc(O)c3[nH]c(=O)ccc13)C2` [Indacaterol maleate, (R)-5-[2-(5,6-diethyl-indan-2-ylamino)-1-hydroxyethyl]-8-hydroxy-1H-quinolin-2-one]: in data set [1] (setting [5]), the “FPF<3.3 μm” value stood at 57 % DD, the MMAD is 2.8 μm and the “d^2Q < 500” value is 65. Further, in data set [1] (setting [6]), the “FPF<3.3 μm” value came to 69 % DD, the MMAD turned out to be 2.3 μm and the “d^2Q < 500” value is 68.

For `CCCC1O[C@@H]2C[C@H]3[C@@H]4CCC5=CC(=O)C=C[C@]5(C)[C@H]4[C@@H](O)C[C@]3(C)[C@]2(C(=O)CO)O1` (some centres unmarked) [budesonide], the total lung deposition was 15% in data set [2] (breathe more slowly (comfortable inhalation manoeuvre)) and 28% in data set [2] (breathe quickly (forceful inhalation manoeuvre)).

As to `CCc1cc2c(cc1CC)CC(NC[C@H](O)c1ccc(O)c3[nH]c(=O)ccc13)C2` [indacaterol, (R)-5-[2-(5,6-diethyl-indan-2-ylamino)-1-hydroxyethyl]-8-hydroxy-1H-quinolin-2-one], the “% deviation in FPFd2Q<500” value in data set [1] is 4.6%. Also, in data set [3], the duration of action result is “over 24 hours” and the onset of action result is listed as “about 10 minutes”.

Take `O=C([O-])CC(O)(CC(=O)[O-])C(=O)[O-].[Na+].[Na+].[Na+]` [sodium citrate]: in data set [4] (pH > 7), the “Dry Tg” value is 170 (pH > 7) ° C.

On to `CC(C)C[C@H](NC(=O)[C@H](CC(C)C)NC(=O)[C@@H](N)CC(C)C)C(=O)O` [trileucine] (H-Leu-Leu-Leu-OH), for which, in data set [4] (pH dependent), the Dry Tg is 70 to 100 °C.
